Laboratory results as given in ChEMBL document CHEMBL1201862, “PubChem BioAssay data set” (2004).
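How tested: cells in 96-well plates exposed to compound for 48 hours at five concentrations. The concentration for 50% growth inhibition is given as GI50.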 The source made the active and inactive calls. Cut-off read from the data, not from the text of the source: active = GI50 up to about 1.1 µM and inactive = higher.

Assays:
Experiment in all cases: DTP human tumour cell line panel, 48 h
[1] = test system: EKVX
[2] = test system: CCRF-CEM
[3] = test system: SF-539
[4] = test system: SF-268
[5] = test system: MCF7
[6] = test system: SK-OV-3
[7] = test system: CAKI-1
[8] = test system: HOP-62
[9] = test system: 786-0
[10] = test system: RPMI-8226
[11] = test system: SK-MEL-28
[12] = test system: SK-MEL-5
[13] = test system: HT-29
[14] = test system: HL-60
[15] = test system: BT-549
[16] = test system: DU-145
[17] = test system: HCC 2998
[18] = test system: OVCAR-3
[19] = test system: NCI-H460
[20] = test system: SF-295

Measured: GI50

CCOC(=O)c1nc2ccccc2nc1NCc1cc(OC)c(OC)c(OC)c1
inactive: [1] 51.1 µM | [2] 39.9 µM | [3] > 100 µM | [4] > 100 µM | [5] 35.6 µM | [6] 80.5 µM | [7] 70.6 µM | [8] 55.1 µM | [9] 72.9 µM | [10] 25.2 µM | [11] 58.3 µM | [12] 26.9 µM | [13] 40.5 µM | [14] 33.3 µM | [15] 34.8 µM | [16] > 100 µM | [17] 53.7 µM | [18] 75.5 µM | [19] 28.8 µM | [20] 54.1 µM

Fc1ccc(N2C(=S)SC(=N\c3ccccc3)/C2=N/c2ccccc2)cc1
inactive: [1] 97.5 µM | [2] 25.9 µM | [3] > 100 µM | [4] > 100 µM | [5] > 73.8 µM | [6] > 100 µM | [7] > 100 µM | [8] > 75 µM | [9] > 100 µM | [10] 32.8 µM | [11] > 100 µM | [12] 41.3 µM | [13] 27.1 µM | [14] 53.8 µM | [15] > 100 µM | [16] > 100 µM | [17] > 100 µM | [18] 41.6 µM | [19] > 100 µM | [20] > 100 µM

COC(=O)[C@@H]1C[C@@]23CCCN4CC[C@@]5(c6cccc(OC)c6N(C=O)[C@]15CC2)[C@@H]43
inactive: [1] > 100 µM | [2] > 100 µM | [3] > 100 µM | [4] > 100 µM | [5] > 100 µM | [6] > 100 µM | [7] > 100 µM | [8] > 100 µM | [9] > 100 µM | [10] > 100 µM | [11] > 100 µM | [12] > 100 µM | [13] > 100 µM | [14] > 100 µM | [15] > 100 µM | [16] > 100 µM | [17] > 100 µM | [18] > 100 µM | [19] > 100 µM | [20] > 100 µM

CS(=O)(=O)O.[Ag]
inactive: [1] 21.9 µM | [2] 2.46 µM | [3] 17.3 µM | [4] 16 µM | [5] 4.03 µM | [6] 18.3 µM | [7] 17.8 µM | [8] 25.4 µM | [9] 16.3 µM | [10] 2.49 µM | [11] 18.4 µM | [12] 5.3 µM | [13] 19.3 µM | [14] 2.79 µM | [15] 20.8 µM | [16] 17.1 µM | [17] 14.2 µM | [18] 23.8 µM | [19] 20.2 µM | [20] 34.2 µM

COc1ccc(NS(=O)(=O)c2ccc3ncn(NS(=O)(=O)c4ccc(I)cc4)c(=O)c3c2)cc1
inactive: [1] > 100 µM | [2] 64.7 µM | [3] > 100 µM | [4] > 100 µM | [5] > 100 µM | [6] > 100 µM | [7] > 100 µM | [8] > 100 µM | [9] > 100 µM | [10] 6.03 µM | [11] > 100 µM | [12] > 100 µM | [13] > 100 µM | [14] 49.3 µM | [15] > 10 µM | [16] > 100 µM | [17] > 100 µM | [18] > 100 µM | [19] > 100 µM | [20] > 100 µM

O=P1(NCCCl)OCCC(OO)N1CCCl (stereo not given)
inactive: [1] > 100 µM | [2] 9.44 µM | [3] 16.9 µM | [4] 35.2 µM | [5] 24.9 µM | [6] > 94 µM | [7] 18.3 µM | [8] 52.4 µM | [9] 26.1 µM | [10] 7.03 µM | [11] 18.9 µM | [12] 93.5 µM | [13] 36.6 µM | [14] 6.82 µM | [15] 39.5 µM | [16] 54 µM | [17] > 100 µM | [18] 23.2 µM | [19] 37.8 µM | [20] 1.72 µM

COc1ccc(/C(CCl)=C(\Nc2ccccc2)c2ccc(OC)c(OC)c2)cc1OC
inactive: [1] > 100 µM | [2] 97.9 µM | [3] > 100 µM | [4] > 100 µM | [5] > 100 µM | [6] > 100 µM | [7] > 100 µM | [8] > 100 µM | [9] > 100 µM | [10] 68.2 µM | [11] > 100 µM | [12] 71.9 µM | [13] > 100 µM | [14] 27.2 µM | [15] > 100 µM | [16] > 100 µM | [17] > 100 µM | [18] > 100 µM | [19] 82.6 µM | [20] 78 µM
